Laboratory results as given in patent US20250136606A1, “MODULATORS OF TRPML, THEIR COMPOSITIONS AND METHODS OF USE” (Caraway Therapeutics, Inc., priority 2021, published 2025).

Key:
Type in all cases: cell-based
Conditions in all cases: fluorescent calcium assay
[1] = molecular target: T1, TRPML2 (Homo sapiens, UniProt Q8IZK6); assay: Fluorescent TRPML2 assay (performed as for TRPML1, substituting the TRPML2 subtype)
T1 construct: expressed in transfected cells
T1 sequence (Q8IZK6 1-566): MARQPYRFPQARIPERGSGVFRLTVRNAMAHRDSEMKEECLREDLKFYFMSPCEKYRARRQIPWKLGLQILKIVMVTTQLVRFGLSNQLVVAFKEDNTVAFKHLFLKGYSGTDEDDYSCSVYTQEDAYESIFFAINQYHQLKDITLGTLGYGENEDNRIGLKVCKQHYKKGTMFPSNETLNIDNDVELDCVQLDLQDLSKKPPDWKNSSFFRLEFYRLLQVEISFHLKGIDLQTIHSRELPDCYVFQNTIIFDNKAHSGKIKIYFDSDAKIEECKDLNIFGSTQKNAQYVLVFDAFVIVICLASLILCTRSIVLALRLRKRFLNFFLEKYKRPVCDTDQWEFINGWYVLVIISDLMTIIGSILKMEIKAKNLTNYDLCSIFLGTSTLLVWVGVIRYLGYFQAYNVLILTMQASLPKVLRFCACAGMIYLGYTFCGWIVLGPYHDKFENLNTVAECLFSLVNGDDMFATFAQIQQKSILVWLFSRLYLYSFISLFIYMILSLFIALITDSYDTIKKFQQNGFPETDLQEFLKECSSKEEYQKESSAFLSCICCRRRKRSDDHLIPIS
Outline: (§1)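 Agonist activity is scored as percent of plate controls from Fluo4 fluorescence after dye-loaded, doxycycline-induced HEK-293 Trex cells meet compound in high-calcium (10 mM) Ringer's. Compounds run in half-log dilutions from 20 micromolar final, in triplicate.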

[2] = molecular target: TRPML1 (Homo sapiens, UniProt Q9GZU1); assay: Fluorescent TRPML1 assay (Fluo4-AM calcium fluorescence in doxycycline-induced HEK-293 Trex cells)
Sequence of TRPML1 (Q9GZU1 whole entry L15A/L16A/L577A/L578A, form open): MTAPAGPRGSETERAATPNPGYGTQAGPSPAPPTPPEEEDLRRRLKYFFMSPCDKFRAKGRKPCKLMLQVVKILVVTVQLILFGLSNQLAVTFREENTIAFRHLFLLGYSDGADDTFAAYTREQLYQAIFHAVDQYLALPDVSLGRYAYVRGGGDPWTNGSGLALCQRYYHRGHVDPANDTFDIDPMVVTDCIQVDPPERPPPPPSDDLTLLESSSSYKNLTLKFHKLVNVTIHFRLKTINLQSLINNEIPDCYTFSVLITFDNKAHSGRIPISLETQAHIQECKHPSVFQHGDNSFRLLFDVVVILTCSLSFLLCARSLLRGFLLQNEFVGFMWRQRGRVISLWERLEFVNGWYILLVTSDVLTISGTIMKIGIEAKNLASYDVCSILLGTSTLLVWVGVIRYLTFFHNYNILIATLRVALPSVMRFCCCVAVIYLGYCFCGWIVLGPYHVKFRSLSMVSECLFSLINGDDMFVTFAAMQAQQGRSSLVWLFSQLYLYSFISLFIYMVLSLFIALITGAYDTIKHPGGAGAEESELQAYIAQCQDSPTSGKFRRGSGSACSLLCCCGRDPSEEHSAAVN
Outline: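 HEK-293 Trex cells stably carrying human TRPML1 (surface-trafficking mutant) were induced overnight with 0.5 ug/mL doxycycline, loaded with 1 micromolar Fluo4-AM, and suspended in Ringer's with 10 mM calcium. Compounds at 20 micromolar to 6 nanomolar final, half-log steps, triplicate; fluorescence 480/540 nm gave percent activity versus controls and EC50 by non-linear regression.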

[3] = molecular target: T2, TRPML3 (Homo sapiens, UniProt Q8TDD5); assay: Fluorescent TRPML3 assay (performed as for TRPML1, substituting the TRPML3 subtype)
T2 construct: expressed in transfected cells
T2 sequence (Q8TDD5 1-553): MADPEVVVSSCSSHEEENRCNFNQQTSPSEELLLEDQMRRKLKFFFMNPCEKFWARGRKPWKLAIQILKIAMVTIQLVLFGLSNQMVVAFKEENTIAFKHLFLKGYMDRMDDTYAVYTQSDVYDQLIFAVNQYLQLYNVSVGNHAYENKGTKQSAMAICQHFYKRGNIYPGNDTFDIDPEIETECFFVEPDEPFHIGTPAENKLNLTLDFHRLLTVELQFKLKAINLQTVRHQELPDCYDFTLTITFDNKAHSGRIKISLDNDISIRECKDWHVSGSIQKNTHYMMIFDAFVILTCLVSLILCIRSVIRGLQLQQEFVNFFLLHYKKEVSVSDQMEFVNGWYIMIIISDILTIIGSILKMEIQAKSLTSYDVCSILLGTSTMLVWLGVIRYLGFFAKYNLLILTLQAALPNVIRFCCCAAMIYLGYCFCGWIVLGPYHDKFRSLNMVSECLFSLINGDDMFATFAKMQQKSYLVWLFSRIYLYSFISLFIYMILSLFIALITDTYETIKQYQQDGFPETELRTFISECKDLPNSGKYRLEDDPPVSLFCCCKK
Outline: as §1

Row | EC50 [1] | EC50 [2] | EC50 [3] | Structure (SMILES)
1 | 100 to 500 nM | < 100 nM | < 100 nM | Cc1cc(-n2cc(-c3ccccc3F)c3c(N4CCN(C(=O)OC(C)(C)C)C[C@@H]4C)ncnc32)cc(C#N)n1 [Compound 444, tert-butyl (S)-4-(7-(2-cyano-6-methylpyridin-4-yl)-5-(2-fluorophenyl)-7H-pyrrolo[2,3-d]pyrimidin-4-yl)-3-methylpiperazine-1-carboxylate]
2 | 100 to 500 nM | < 100 nM | < 100 nM | C[C@H]1CN(C(=O)OC(C)(C)C)CCN1c1ncnc2c1c(-c1ccccc1F)cn2-c1cnnc(C#N)c1 [Compound 448, tert-butyl (S)-4-(7-(6-cyanopyridazin-4-yl)-5-(2-fluorophenyl)-7H-pyrrolo[2,3-d]pyrimidin-4-yl)-3-methylpiperazine-1-carboxylate]
3 | 100 to 500 nM | < 100 nM | < 100 nM | C[C@H]1CN(C(=O)OC(C)(C)C)CCN1c1ncnc2c1c(C1CC1)cn2-c1cc(F)ccn1 [Compound 453, tert-butyl (S)-4-(5-cyclopropyl-7-(4-fluoropyridin-2-yl)-7H-pyrrolo[2,3-d]pyrimidin-4-yl)-3-methylpiperazine-1-carboxylate]
4 | 500 to 2000 nM | 500 to 2000 nM | 100 to 500 nM | C[C@H]1CN(C(=O)OC(C)(C)C)CCN1c1ncnc2c1c(C1CC1)cn2-c1ccc(C#N)n1C [Compound 456, tert-butyl (S)-4-(7-(5-cyano-1-methyl-1H-pyrrol-2-yl)-5-cyclopropyl-7H-pyrrolo[2,3-d]pyrimidin-4-yl)-3-methylpiperazine-1-carboxylate]
5 | < 100 nM | < 100 nM | < 100 nM | C[C@H]1CN(C(=O)OC(C)(C)C)CCN1c1ncnc2c1c(C1CC1)cn2-c1cc(Cl)ccn1 [Compound 457, tert-butyl(S)-4-(7-(4-chloropyridin-2-yl)-5-cyclopropyl-7H-pyrrolo[2,3-d]pyrimidin-4-yl)-3-methylpiperazine-1-carboxylate]
6 | 100 to 500 nM | < 100 nM | < 100 nM | C[C@@H]1CN(c2ncnc3c2c(-c2ccccc2F)cn3-c2nccc(C#N)n2)[C@@H](C)CN1C(=O)OC(C)(C)C [Compound 460, tert-butyl (2R,5S)-4-(7-(4-cyanopyrimidin-2-yl)-5-(2-fluorophenyl)-7H-pyrrolo[2,3-d]pyrimidin-4-yl)-2,5-dimethylpiperazine-1-carboxylate]
7 | 100 to 500 nM | < 100 nM | < 100 nM | Cc1nccnc1-c1cn(-c2cccc(Cl)c2)c2ncnc(N3C[C@@H](C)N(C(=O)OC(C)(C)C)C[C@@H]3C)c12 [Compound 461, tert-butyl (2R,5S)-4-(7-(3-chlorophenyl)-5-(3-methylpyrazin-2-yl)-7H-pyrrolo[2,3-d]pyrimidin-4-yl)-2,5-dimethylpiperazine-1-carboxylate]
8 | < 100 nM | < 100 nM | < 100 nM | Cc1nc(-n2cc(-c3ccccc3F)c3c(N4CCN(C(=O)OC(C)(C)C)C[C@@H]4C)ncnc32)sc1C#N [Compound 463, tert-butyl (S)-4-(7-(5-cyano-4-methylthiazol-2-yl)-5-(2-fluorophenyl)-7H-pyrrolo[2,3-d]pyrimidin-4-yl)-3-methylpiperazine-1-carboxylate]
9 | 500 to 2000 nM | 100 to 500 nM | < 100 nM | CC(C)(C)OC(=O)N1CCN(c2ncnc3c2c(C2CCOCC2)cn3-c2cccc(Cl)c2)CC1 [Compound 465, tert-butyl 4-(7-(3-chlorophenyl)-5-(tetrahydro-2H-pyran-4-yl)-7H-pyrrolo[2,3-d]pyrimidin-4-yl)piperazine-1-carboxylate]
10 | 500 to 2000 nM | < 100 nM | < 100 nM | CC1CN(C(=O)OC(C)(C)C)CCN1c1ncnc2c1c(C1CCOCC1)cn2-c1cccc(Cl)c1 (stereo not drawn) [Compound 466, tert-butyl 4-(7-(3-chlorophenyl)-5-(tetrahydro-2H-pyran-4-yl)-7H-pyrrolo[2,3-d]pyrimidin-4-yl)-3-methylpiperazine-1-carboxylate]

More lines, now with the values behind:

Row | Structure (SMILES) | EC50 [1] | EC50 [2] | EC50 [3]
11 | C[C@H]1CN(C(=O)OC(C)(C)C)CCN1c1ncnc2c1c(C1CC1)cn2-c1cc(C#N)n(C)c1 [Compound 445, tert-butyl (S)-4-(7-(5-cyano-1-methyl-1H-pyrrol-3-yl)-5-cyclopropyl-7H-pyrrolo[2,3-d]pyrimidin-4-yl)-3-methylpiperazine-1-carboxylate] | 100 to 500 nM | < 100 nM | < 100 nM
12 | C[C@H]1CN(C(=O)OC(C)(C)C)CCN1c1nccc2c1c(C1CC1)cn2-c1cc(C#N)ccn1 [Compound 446, tert-butyl (S)-4-(1-(4-cyanopyridin-2-yl)-3-cyclopropyl-1H-pyrrolo[3,2-c]pyridin-4-yl)-3-methylpiperazine-1-carboxylate] | 100 to 500 nM | < 100 nM | < 100 nM
13 | C[C@H]1CN(C(=O)OC(C)(C)C)CCN1c1ncnc2c1c(-c1ccccc1F)cn2-c1cc(C#N)cnn1 [Compound 447, tert-butyl (S)-4-(7-(5-cyanopyridazin-3-yl)-5-(2-fluorophenyl)-7H-pyrrolo[2,3-d]pyrimidin-4-yl)-3-methylpiperazine-1-carboxylate] | < 100 nM | < 100 nM | < 100 nM
14 | C[C@H]1CN(C(=O)OC(C)(C)C)CCN1c1nccc2c1c(-c1ccccc1F)cn2-c1cc(C#N)ccn1 [Compound 449, tert-butyl (S)-4-(1-(4-cyanopyridin-2-yl)-3-(2-fluorophenyl)-1H-pyrrolo[3,2-c]pyridin-4-yl)-3-methylpiperazine-1-carboxylate] | 100 to 500 nM | < 100 nM | < 100 nM
15 | C[C@H]1CN(C(=O)OC(C)(C)C)CCN1c1ncnc2c1c(-c1ccccc1F)cn2-c1ccnnc1 [Compound 451, tert-butyl (S)-4-(5-(2-fluorophenyl)-7-(pyridazin-4-yl)-7H-pyrrolo[2,3-d]pyrimidin-4-yl)-3-methylpiperazine-1-carboxylate] | > 2000 nM | 100 to 500 nM | 100 to 500 nM
16 | C[C@@H]1CN(c2ncnc3c2c(-c2ccccc2F)cn3-c2cc(F)ccn2)[C@@H](C)CN1C(=O)OC(C)(C)C [Compound 452, tert-butyl (2R,5S)-4-(5-(2-fluorophenyl)-7-(4-fluoropyridin-2-yl)-7H-pyrrolo[2,3-d]pyrimidin-4-yl)-2,5-dimethylpiperazine-1-carboxylate] | 100 to 500 nM | < 100 nM | < 100 nM
17 | C[C@@H]1CN(c2ncnc3c2c(-c2ccccc2F)cn3-c2cc(Cl)ccn2)[C@@H](C)CN1C(=O)OC(C)(C)C [Compound 454, tert-butyl (2R,5S)-4-(7-(4-chloropyridin-2-yl)-5-(2-fluorophenyl)-7H-pyrrolo[2,3-d]pyrimidin-4-yl)-2,5-dimethylpiperazine-1-carboxylate] | < 100 nM | < 100 nM | < 100 nM
18 | CC(C)(C)OC(=O)N1CCN(c2ncnc3c2c(-c2ccccc2F)cn3-c2ncc(C#N)s2)CC1 [Compound 455, tert-butyl 4-(7-(5-cyanothiazol-2-yl)-5-(2-fluorophenyl)-7H-pyrrolo[2,3-d]pyrimidin-4-yl)piperazine-1-carboxylate] | 100 to 500 nM | < 100 nM | < 100 nM
19 | Cc1nccnc1-c1cn(-c2cc(C#N)ccn2)c2ncnc(N3C[C@@H](C)N(C(=O)OC(C)(C)C)C[C@@H]3C)c12 [Compound 458, tert-butyl (2R,5S)-4-(7-(4-cyanopyridin-2-yl)-5-(3-methylpyrazin-2-yl)-7H-pyrrolo[2,3-d]pyrimidin-4-yl)-2,5-dimethylpiperazine-1-carboxylate] | 100 to 500 nM | < 100 nM | 100 to 500 nM
20 | Cc1nccnc1-c1cn(-c2cc(F)cc(F)c2)c2ncnc(N3C[C@@H](C)N(C(=O)OC(C)(C)C)C[C@@H]3C)c12 [Compound 462, tert-butyl (2R,5S)-4-(7-(3,5-difluorophenyl)-5-(3-methylpyrazin-2-yl)-7H-pyrrolo[2,3-d]pyrimidin-4-yl)-2,5-dimethylpiperazine-1-carboxylate] | 100 to 500 nM | < 100 nM | < 100 nM
